In patent publication US20210000814A1, “RIMEGEPANT FOR CGRP RELATED DISORDERS” (Biohaven Pharmaceutical Holding Company Ltd., priority 2018, published 2021):

System: subjects with Acute Migraines
Assay: BHV3000-301 Phase 3 trial, acute treatment of migraine: efficacy
Format: in vivo, human
Conditions: Study 301; P<0.0001
Protocol: Clinical Trial—BHV3000-301: Phase 3: Double-Blind, Randomized, Placebo-Controlled, Safety and Efficacy Trial of BHV-3000 (Rimegepant) for the Acute Treatment of Migraine (ClinicalTrials.gov Identifier: NCT03235479). A phase 3 clinical study was conducted with 1490 participants, as follows. […] Pain freedom of rimegepant (75 mg tablet) compared with placebo in the acute treatment of migraine will be measured using the number of evaluable subjects that report no pain at 2 hours post-dose. [Time Frame: Two hours post dose] • Pain will be measured on a 4 point Likert scale (0=none, 1=mild, 2=moderate, 3=severe) • 2. Freedom from the most bothersome symptom (MBS) of rimegepant (75 mg tablet) compared with placebo will be measured using the number of evaluable subjects that report the absence of their MBS at 2 hours post-dose. [Time Frame: Two hours post dose] • The MBS (nausea, phonophobia or photophobia) will measured using a binary scale (0=absent, 1=present). […] [Time Frame: 2 hours -24 hours post-dose] • Sustained Pain Freedom as measured by a 4 point numeric rating scale (None, Mild, Moderate, Severe) • 2. […] [Time Frame: 2 hours post-dose] • Pain Relief as measured by a 4 point numeric rating scale (None, Mild, Moderate, Severe) • 5. […] Sustained Pain Relief as measured by a 4 point numeric rating scale (None, Mild, Moderate, Severe) • 9. […]

Compound: N[C@@H]1c2cccnc2[C@H](OC(=O)N2CCC(n3c(=O)[nH]c4ncccc43)CC2)CC[C@H]1c1cccc(F)c1F [Rimegepant, [(55,65,9R)-5-amino-6-(2,3-difluorophenyl)-6,7,8,9-tetrahydro-5H-cyclohepta[b]pyridin-9-yl]4-(2-oxo-3H-imidazo[4,5-b]pyridin-1-yl)piperidine-1-carboxylate]
- patients achieving normal function at 2 hours (functional disability) versus placebo: greater proportion
